Like-named read-outs stand apart in the source and are kept apart here.
Legend:
[1] = test system: L. major promastigotes; assay: Leishmanicidal activity against L. major promastigotes (MTT assay); assay type: cell-based, Leishmania major; conditions: for IC50: Leishmania major, L. major promastigotes, 48 h incubation, MTT
Description: (§1) Promastigotes. L. major (clone VI, MHOM/IL/80) and L. infantum (clone, BCN-150) parasites were cultured at 26 °C under continuous shaking in M199 1× medium (Sigma, St. Louis, MO, USA) supplemented with heat-inactivated fetal bovine serum (FBS), 25 mM HEPES (pH 7), 0.1 mM adenine, 0.0005% (w/v) haemin, […], 0.0005% (w/v) biotin, 100 IU/mL penicillin and […]. For each experiment, the culture medium was changed everyday in order to achieve parasite in exponential growth phase.
(§2) In order to determine the leishmanicidal activity of the compounds obtained in this study, promastigotes of L. major and L. infantum strains were seeded in 96-well plates (3 ×·10^6 parasite/mL) in exponential growth phase at increasing concentrations (1–500 μM) of the compounds and maintained at 26 °C. After 48 h of incubation, the IC50 was determined by MTT assay. The absorbance was measured in a MultiskanEX photometric plate reader for microplates at 540 nm. Data were obtained from three independent experiments performed in triplicate.

[2] = test system: L. infantum promastigotes; assay: Leishmanicidal activity against L. infantum promastigotes (MTT assay); assay type: cell-based, Leishmania infantum
Description: as §1, §2

[3] = Cytotoxicity in PMA-differentiated THP-1 macrophages (MTT assay); assay type: cell-based; conditions: human, pH 7.2, 48 h of treatment, read-out: THP-1 Cells CC50
Description: Human monocytic leukemia cell line THP-1 cells were cultured in RMPI 1640 medium (Gibco, Leiden, The Netherlands) supplemented with 10% heat-inactivated FBS, 5% penicillin/streptomycin, 1 mM HEPES, 2 mM glutamine at pH 7.2 at 36 °C and 5% CO2.
THP-1 cells were seeded at a concentration of 8 × 10^5 cells/mL in 96-well plates and incubated for 24 h with phorbol 12-myristate 13-acetate (PMA) (10 ng/mL) supplemented RPMI 1640 (Gibco, Leiden, The Netherlands). After 24 h, the culture medium was removed, and the cells were treated with the synthesized compounds at different concentrations ranging from 1–500 μM at 37 °C and 5% CO2. After this time, the MTT assay was performed. The cytotoxic concentration values (CC50) were obtained by fitting the data to a sigmoid dose-inhibition curve using GraphPad Prism 7.0 software (GraphPad Software Inc., San Diego, CA, USA). MIL and PMN were used as reference drugs for comparison.

[4] = test system: L. infantum promastigotes; assay: Drug combination (FICI) assay on L. infantum promastigotes; assay type: cell-based, Leishmania infantum; conditions: for ƩFICI50: 48 h; for ƩFICI: combined with the reference drugs AMB, MIL, and PMN (bound for all three)
Description: To determine the nature of the interaction, it is crucial to choose the appropriate doses. Thus, the evaluation of the combination was carried out by a dose–response linear dilution experiment, for which the IC50 value of each substance alone was determined and multiplied by 0.2×, 0.4×, 0.6×, 0.8×, 1×, 1.2×, 1.4×, 1.6×, 1.8×, and 2× times, in order to obtain the different dilutions. […] Compound A6 stood out in this experiment, with synergistic interactions in combination with MIL (ƩFICI = 0.44), borderline synergistic interaction combined with PMN (ƩFICI = 0.54), but without interaction when combined with AMB (ƩFICI = 0.70).
The fractional inhibitory concentration index (FICI) was used to describe the interaction between the lead compounds A4–A6 and A8 with AmB, PMN and MIL. The compounds were studied in vitro against L. infantum promastigotes after 48 h of treatment. For this purpose, different increasing concentration ratios (0.2×, 0.4×, 0.6×, 0.8×, 1×, 1.2×, 1.4×, 1.6×, 1.8× and 2× times the IC50 of the compounds) were established. Finally, synergy was defined as FICI < 0.5, non-interaction as 0.5 < FICI < 4, and antagonism as FICI > 4. FICI values were obtained from four independent experiments.

[5] = Leishmania infantum, 48 h, L. infantum promastigotes, 48 h incubation, MTT, compound alone, read-out: IC50

SMILES	IC50 [1] [µM]	IC50 [2, 5] [µM]	CC50 at 48 h [3] [µM]	Effect ([4]; combination with AmB)	ƩFICI50 ([4]; combination with AmB)	Effect ([4]; combination with MIL)	ƩFICI50 ([4]; combination with MIL)	Effect ([4]; combination with PMN)	ƩFICI50 ([4]; combination with PMN)	also measured
CCCCCCC(=O)SCC(=O)OC [D4, Methyl 2-(heptanoylthio)acetate]	87.3	79.2								
O=C(O)CSC(=O)C1CC1 [B5, 2-((cyclopropanecarbonyl)thio)acetic acid]		87.6								
CCCCCCCCCCCCCCCCOP(=O)([O-])OCC[N+](C)(C)C [MIL, miltefosine, reference compound]		31.9	13.3 ± 2.8							
O=C(O)C[Se]C(=O)C1CC1 [A5, 2-((cyclopropanecarbonyl)selanyl)acetic acid]	113	< 40	211 ± 9.3	Non interaction (non-interaction as 0.5 < FICI < 4)	0.70	Non interaction (non-interaction as 0.5 < FICI < 4)	0.98	Non interaction (non-interaction as 0.5 < FICI < 4)	0.61	ƩFICI [4]: > 0.60
O=C(O)C[Se]C(=O)C1CCC1 [A6, 2-((cyclobutanecarbonyl)selanyl)acetic acid]			178 ± 10.2	Non interaction (non-interaction as 0.5 < FICI < 4)	0.70	Synergy (synergy was defined as FICI < 0.5)	0.44	Non interaction (non-interaction as 0.5 < FICI < 4)	0.54	times more selective than MIL ([1]; L. major, from SI values): 15; times more selective than PMN ([1]; L. major, from SI values): 5; fold more selective than MIL ([2]; L. infantum, from SI values): 28 fold; fold more selective than PMN ([2]; L. infantum, from SI values): 5 fold
O=C(O)C[Se]C(=O)C1CCCCC1 [A8, 2-((cyclohexanecarbonyl)selanyl)acetic acid]		< 40	147 ± 12.5	Non interaction (non-interaction as 0.5 < FICI < 4)	0.52	Synergy (synergy was defined as FICI < 0.5)	0.40	Non interaction (non-interaction as 0.5 < FICI < 4)	0.52	IC50 ([2]; L. infantum promastigotes, 48 h incubation, MTT, compound alone, read-out: IC50): 39.9 µM
NC[C@@H]1O[C@H](O[C@H]2[C@@H](O)[C@H](O[C@@H]3[C@@H](O)[C@H](N)C[C@H](N)[C@H]3O[C@H]3O[C@H](CO)[C@@H](O)[C@H](O)[C@H]3N)O[C@@H]2CO)[C@H](N)[C@@H](O)[C@@H]1O [PMN, paromomycin, reference compound]			39 ± 13.7							
COC(=O)CSC(=O)C1CCC1 [D6, Methyl 2-((cyclobutanecarbonyl)thio)acetate]	83.4	95.3								
COC(=O)CSC(=O)C1CC1 [D5, Methyl 2-((cyclopropanecarbonyl)thio)acetate]	81.8	68.7								
CCCCCCC(=O)[Se]CC(=O)OC [C4, Methyl 2-(heptanoylselanyl)acetate]										IC50 ([2]; Leishmania infantum, 48 h): 116 µM
CCCCCCC(=O)[Se]CC(=O)O [A4, 2-(heptanoylselanyl)acetic acid]		< 40	173 ± 8.6	Non interaction (non-interaction as 0.5 < FICI < 4)	0.71	Non interaction (non-interaction as 0.5 < FICI < 4)	0.68	Non interaction (non-interaction as 0.5 < FICI < 4)	0.68	ƩFICI [4]: > 0.60

— paper PMC10420963, “Exploring Novel Drug Combinations: The Therapeutic Potential of Selanyl Derivatives for Leishmania Treatment” (Molecules, 2023)
